Here are results for 20 molecules from US20220306647A1, “NOVEL INDOLE-2-CARBOXAMIDES ACTIVE AGAINST THE HEPATITUS B VIRUS (HBV)” (AICURIS GMBH & CO. KG, priority 2019, published 2022).

Where two headings read alike, the source gives them in different places.

Assay [1] concerns the target T1, HBV core protein (C-terminal truncated core protein, 149 amino acids of the N-terminal assembly domain, BODIPY-FL labelled) (UniProt P03146).
T1 construct: fused on or other part: A single cysteine added after residue 149, at position 150; It carries the BODIPY-FL maleimide label
Put plainly: Biochemical capsid assembly assay (fluorescence quenching). The method in brief: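 Fluorescence quenching of BODIPY-FL-labelled core dimers (1.0 to 2.0 μM) in 50 mM HEPES pH 7.5; compounds at 8 concentrations, 0.5 log-unit dilutions from top 100, 31.6 or 10 μM, 0.5% DMSO. Assembly started with NaCl to […]; fluorescence (ex 477/em 525 nm) read after 6 min. EC50 by non-linear regression.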

A further assay deals with HBV (HepAD38 cells). Put plainly: HBV replication assay: determination of HBV DNA from the supernatants of HepAD38 cells. It counts as cell-based. Conditions: Hepatitis B virus, 144 h, HBV DNA in HepAD38 supernatant at day 6, qPCR, read-out: Cell activity. How it is done:
Determination of HBV DNA from the Supernatants of HepAD38 Cells
The anti-HBV activity was analysed in the stable transfected cell line HepAD38, which has been described to secrete high levels of HBV virion particles (Ladner et al., 1997). In brief, HepAD38 cells were cultured at 37° C. at 5% CO2 and 95% humidity in 200 μl maintenance medium, which was Dulbecco's modified Eagle's medium/Nutrient Mixture F-12 (Gibco, Karlsruhe), 10% fetal bovine serum (PAN Biotech Aidenbach) supplemented with 50 μg/ml penicillin/streptomycin (Gibco, Karlsruhe), 2 mM L-glutamine (PAN Biotech, Aidenbach), 400 μg/ml G418 (AppliChem, Darmstadt) and 0.3 μg/ml tetracycline. Cells were subcultured once a week in a 1:5 ratio, but were usually not passaged more than ten times. For the assay 60,000 cells were seeded in maintenance medium without any tetracycline into each well of a 96-well plate and treated with serial half-log dilutions of test compound. To minimize edge effects the outer 36 wells of the plate were not used but were filled with assay medium. On each assay plate six wells for the virus control (untreated HepAD38 cells) and six wells for the cell control (HepAD38 cells treated with 0.3 μg/ml tetracycline) were allocated, respectively. In addition, one plate set with reference inhibitors like BAY 41-4109, entecavir, and lamivudine instead of screening compounds were prepared in each experiment. In general, experiments were performed thrice in triplicates. At day 6 HBV DNA from 100 μl filtrated cell culture supernatant (AcroPrep Advance 96 Filter Plate, […] Supor membran, PALL GmbH, Dreieich) was automatically purified on the MagNa Pure LC instrument using the MagNA Pure 96 DNA and Viral NA Small Volume Kit (Roche Diagnostics, Mannheim) according to the instructions of the manufacturer. EC50 values were calculated from relative copy numbers of HBV DNA In brief, 5 μl of the 100 μl eluate containing HBV DNA were subjected to PCR LC480 Probes Master Kit (Roche) together with 1 μM antisense primer […], 0.5 μM sense primer […], 0.3 μM hybprobes […]-FL and LC640-[…]-PH (TIBMolBiol, Berlin) to a final volume of 12.5 μl. The PCR was performed on the Light Cycler 480 real time system (Roche Diagnostics, Mannheim) using the following protocol: Pre-incubation for 1 min at 95° C., amplification: 40 cycles×(10 sec at 95° C., 50 sec at 60° C., 1 sec at 70° C.), cooling for 10 sec at 40° C. Viral load was quantitated against known standards using HBV plasmid DNA of pCH-9/3091 (Nassal et al., 1990, Cell 63: 1357-1363) and the LightCycler 480 SW 1.5 software (Roche Diagnostics, Mannheim) and EC50 values were calculated using non-linear regression with GraphPad Prism 6 (GraphPad Software Inc., La Jolla, USA).
In general terms: Real-time PCR tracks product formation cycle by cycle.

The mark [2] stands for this setting: assembly started with NaCl, fluorescence read after 6 min, read-out: Assembly activity.
Where [3] appears, read: read-out: Assembly activity, assembly started with NaCl, fluorescence read after 6 min.

T1 sequence (P03146 whole entry, the tested form may be a part): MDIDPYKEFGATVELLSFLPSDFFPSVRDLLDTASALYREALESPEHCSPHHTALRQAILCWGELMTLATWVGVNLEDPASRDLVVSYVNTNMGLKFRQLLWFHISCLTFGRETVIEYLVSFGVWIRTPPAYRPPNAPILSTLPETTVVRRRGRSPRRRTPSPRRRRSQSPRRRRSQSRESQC

`CN1C(=O)c2c3c(nn2CC12CC2)CCN(C(=O)c1cc2ccccc2[nH]1)C3` [Example 14, 12′-(1H-indole-2-carbonyl)-4′-methyl-4′,7′,8′,12′-tetraazaspiro[cyclopropane-1,5′-tricyclo[7.4.0.0^2′7]tridecane]-1′,8′-dien-3′-one]: in assay [1] (setting [2]), the IC50 is < 5 µM. Further, the EC50 in the assay with HBV (HepAD38 cells) is < 1 µM.
For `CN1C(=O)c2c3c(nn2CC12CC2)CCN(C(=O)c1cc2cc(F)c(Cl)cc2[nH]1)C3` [Example 15, 12′-(6-chloro-5-fluoro-1H-indole-2-carbonyl)-4′-methyl-4′,7′,8′,12′-tetraazaspirol[cyclopropane-1,5′-tricyclo[7.4.0.0^2′7]tridecane]-1′,8′-dien-3′-one], in that order: < 5 µM and < 1 µM.
For `Cc1cccc2[nH]c(C(=O)N3CCc4nn5c(c4C3)C(=O)N(C)C3(CC3)C5)cc12` [Example 16, 4′-methyl-12′-(4-methyl-1H-indole-2-carbonyl)-4′,7′,8′,12′-tetraazaspiro[cyclopropane-1,5′-tricyclo[7.4.0.0^2′7]tridecane]-1′,8′-dien-3′-one], in that order: < 5 µM and < 1 µM.
The like results for `CN1C(=O)c2c3c(nn2CC12CC2)CCN(C(=O)c1cc2c(Cl)cccc2[nH]1)C3` [Example 17, 12′-(4-chloro-1H-indole-2-carbonyl)-4′-methyl-4′,7′,8′,12′-tetraazaspiro[cyclopropane-1,5′-tricyclo[7.4.0.0^2′7]tridecane]-1′,8′-dien-3′-one] were, in that order, < 5 µM and < 1 µM.
`Cc1c(F)ccc2[nH]c(C(=O)N3CCc4nn5c(c4C3)C(=O)N(C)C3(CC3)C5)cc12` [Example 18, 12′-(5-fluoro-4-methyl-1H-indole-2-carbonyl)-4′-methyl-4′,7′,8′,12′-tetraazaspiro[cyclopropane-1,5′-tricyclo[7.4.0.0^2′7]tridecane]-1′,8′-dien-3′-one]: in assay [1] (setting [2]), the IC50 is < 5 µM. The EC50 in the assay with HBV (HepAD38 cells) is < 1 µM.
The like results for `CN(CCO)C(=O)c1noc2c1CN(C(=O)c1cc3c(Cl)cccc3[nH]1)CC2` [Example 21, 5-(4-chloro-1H-indole-2-carbonyl)-N-(2-hydroxyethyl)-N-methyl-4H,5H,6H,7H-[1,2]oxazolo[4,5-c]pyridine-3-carboxamide] were, in that order, < 5 µM and < 1 µM.
The like results for `CN(CCO)C(=O)c1noc2c1CN(C(=O)c1cc3ccccc3[nH]1)CC2` [Example 22, N-(2-hydroxyethyl)-5-(1H-indole-2-carbonyl)-N-methyl-4H,5H,6H,7H-[1,2]oxazolo[4,5-c]pyridine-3-carboxamide] were, in that order, < 5 µM and < 1 µM.
For `CN(CCO)C(=O)c1noc2c1CN(C(=O)c1cc3c(F)cc(F)cc3[nH]1)CC2` [Example 23, 5-(4,6-difluoro-1H-indole-2-carbonyl)-N-(2-hydroxyethyl)-N-methyl-4H,5H,6H,7H-[1,2]oxazolo[4,5-c]pyridine-3-carboxamide], in that order: < 5 µM and < 1 µM.
Consider `CN(Cc1ccccc1C(=O)O)C(=O)c1[nH]nc2c1CN(C(=O)c1cc3ccccc3[nH]1)CC2` [Example 24, 2-({1-[5-(1H-indole-2-carbonyl)-2H,4H,5H,6H,7H-pyrazolo[4,3-c]pyridin-3-yl]-N-methylformamido}methyl)benzoic acid], for which, in assay [1] (setting [2]), the IC50 is < 5 µM. The EC50 in the assay with HBV (HepAD38 cells) lay within 1 to 10 µM.
The like results for `CN(Cc1ccccn1)C(=O)c1noc2c1CN(C(=O)c1cc3ccccc3[nH]1)CC2` [Example 26, 5-(1H-indole-2-carbonyl)-N-methyl-N-[(pyridin-2-yl)methyl]-4H,5H,6H,7H-[1,2]oxazolo[4,5-c]pyridine-3-carboxamide] were, in that order, < 5 µM and 1 to 10 µM.
Regarding `CN(C(=O)c1cnn2c1CN(C(=O)c1cc3ccccc3[nH]1)CC2)C1(c2ccccc2C(=O)O)CC1` [Example 30, 2-{1-[N-methyl-5-(1H-indole-2-carbonyl)-4H,5H,6H,7H-pyrazolo[1,5-a]pyrazine-3-amido]cyclopropyl}benzoic acid], the IC50 in assay [1] (setting [2]) is < 5 µM. Besides, in the assay on HBV (HepAD38 cells), the EC50 lay within 1 to 10 µM.
For `CN(C(=O)c1cnn2c1CN(C(=O)c1cc3ccccc3[nH]1)CC2)C1(c2ccc(C(=O)O)cn2)CC1` [Example 31, 6-{1-[N-methyl-5-(1H-indole-2-carbonyl)-4H,5H,6H,7H-pyrazolo[1,5-a]pyrazine-3-amido]cyclopropyl}pyridine-3-carboxylic acid], in that order: < 5 µM and < 100 µM.
With `CN(C(=O)c1cnn2c1CN(C(=O)c1cc3cc(F)c(Cl)cc3[nH]1)CC2)C1(c2cccc(C(=O)O)c2)CC1` [Example 33, 3-{1-[N-methyl-5-(6-chloro-5-fluoro-1H-indole-2-carbonyl)-4H,5H,6H,7H-pyrazolo[1,5-a]pyrazine-3-amido]cyclopropyl}benzoic acid], the IC50 in assay [1] (setting [2]) is < 5 µM. Further, in the assay on HBV (HepAD38 cells), the EC50 was < 1 µM.
For `CN(C(=O)c1cnn2c1CN(C(=O)c1cc3ccccc3[nH]1)CC2)C1(Cc2ccc(C(=O)O)cc2)CC1` [Example 34, 4-({1-[N-methyl-5-(1H-indole-2-carbonyl)-4H,5H,6H,7H-pyrazolo[1,5-a]pyrazine-3-amido]cyclopropyl}methyl)benzoic acid], in that order: < 5 µM and 1 to 10 µM.
As for `Cc1c(F)ccc2[nH]c(C(=O)N3CCn4ncc(C(=O)N(C)C5(c6cccc(C(=O)O)c6)CC5)c4C3)cc12` [Example 35, 3-{1-[N-methyl-5-(5-fluoro-4-methyl-1H-indole-2-carbonyl)-4H,5H,6H,7H-pyrazolo[1,5-a]pyrazine-3-amido]cyclopropyl}benzoic acid], the IC50 in assay [1] (setting [3]) is < 5 µM. Moreover, the EC50 with HBV (HepAD38 cells) was < 1 µM.
For `CN1C(=O)c2c3c(nn2CC12CC2)CCN(C(=O)c1cc2c(F)cccc2[nH]1)C3` [Example 37, 12′-(4-fluoro-1H-indole-2-carbonyl)-4′-methyl-4′,7′,8′,12′-tetraazaspiro[cyclopropane-1,5′-tricyclo[7.4.0.0^2, □]tridecane]-1′,8′-dien-3′-one], the IC50 in assay [1] (setting [3]) was < 5 µM. The EC50 with HBV (HepAD38 cells) was < 1 µM.
Consider `COCC1(N(C)C(=O)c2onc3c2CN(C(=O)c2cc4ccccc4[nH]2)CC3)CC1` [Example 38, 5-(1H-indole-2-carbonyl)-N-[1-(methoxymethyl)cyclopropyl]-N-methyl-4H,5H,6H,7H-[1,2]oxazolo[4,3-c]pyridine-3-carboxamide], for which the IC50 in assay [1] (setting [2]) is < 5 µM. For the same molecule, the EC50 in the assay with HBV (HepAD38 cells) was < 1 µM.
With `CN(C(=O)c1onc2c1CN(C(=O)c1cc3ccccc3[nH]1)CC2)C1CC1` [Example 39, N-cyclopropyl-5-(1H-indole-2-carbonyl)-N-methyl-4,5,6,7-tetrahydroisoxazolo[4,3-c]pyridine-3-carboxamide], the IC50 in assay [1] (setting [3]) was < 5 µM. Besides, the EC50 in the assay with HBV (HepAD38 cells) is < 1 µM.
On to `C[C@@H](NC(=O)c1onc2c1CN(C(=O)c1cc3ccccc3[nH]1)CC2)C(F)(F)F` [Example 40, 5-(1H-indole-2-carbonyl)-N-[(2R)-1,1,1-trifluoropropan-2-yl]-4H,5H,6H,7H-[1,2]oxazolo[4,3-c]pyridine-3-carboxamide], for which the IC50 in assay [1] (setting [2]) was < 5 µM. Moreover, in the assay on HBV (HepAD38 cells), the EC50 was < 1 µM.
As to `CC1Cn2cnc(C(=O)N(C)C3(c4cccc(C(=O)O)c4)CC3)c2CN1C(=O)c1cc2ccccc2[nH]1` (stereo not shown) [Example 41, 3-{1-[N-methyl-7-(1H-indole-2-carbonyl)-6-methyl-5H,6H,7H,8H-imidazo[1,5-a]pyrazine-1-amido]cyclopropyl}benzoic acid], the IC50 in assay [1] (setting [3]) is < 5 µM. The EC50 in the assay on HBV (HepAD38 cells) fell in the range of 1 to 10 µM.
